Measurements from patent US20150190346A1, “COMPOSITIONS AND METHODS FOR TREATMENT OF ABNORMAL CELL GROWTH” (VERASTEM, INC., priority 2014, published 2015).
Where two headings read alike, the source gives them in different places.

Columns and labels:
in vivo = details: male, beagle, dog, po
Procedure: (§1) 4 groups of 1 male beagle dog per group received an oral gavage dose of VS-6063 in various formulations in a 4-session crossover design with a minimum 3-day washout period between dose sessions. In each session, VS-6063, VS-6063-25% SDD in Soluplus/PVP-A, VS-6063-25% physical mixture with Soluplus/PVP-A, and VS-6063-10% SDD in [sequence] L100-55 were administered at a target dose level of 10 mg API/kg. Blood samples (anticoagulant: K2EDTA) were scheduled for collection from each animal prior to dosing and at 0.25, 0.5, 1, 2, 4, 6, 8, 12 and 24 hours after dosing in each dose session. Blood samples were processed for plasma and the plasma was analyzed for VS-6063 by LC-MS/MS. Plasma concentration-time data for individual animals were analyzed to determine the pharmacokinetic profiles of VS-6063.
(§2) 4 groups of 1 male beagle dog per group received an oral gavage dose of VS-6063 in various formulations in a 4-session crossover design with a minimum 3-day washout period between dose sessions. In each session, VS-6063-25% physical mixture with Soluplus/PVP-A and VS-6063-25% SDD in Soluplus/PVP-A were administered at a target dose level of 20 mg API/kg and VS-6063-50% physical mixture with Soluplus/PVP-A was administered at target dose levels of 10 and 20 mg API/kg. Blood samples (anticoagulant: K2EDTA) were scheduled for collection from each animal prior to dosing and at 0.25, 0.5, 1, 2, 4, 6, 8, 12 and 24 hours after dosing in each dose session. Blood samples were processed for plasma and the plasma was analyzed for VS-6063 by LC-MS/MS. Plasma concentration-time data for individual animals were analyzed to determine the pharmacokinetic profiles of VS-6063.
(§3) VS-6063 was formulated (0.934 correction factor) at a target concentration of 10 mg API/mL in 0.5% (w/v) Methocel A4M in water with 0.1% (v/v) Tween 80. VS-6063-25% SDD in Soluplus/PVP-A was formulated (0.25 correction factor) at a target concentration of 10 mg API/mL in 0.5% (w/v) Methocel A4M in water. VS-6063-25% physical mixture with Soluplus/PVP-A was formulated (0.25 correction factor) at a target concentration of 10 mg API/mL in 0.5% (w/v) Methocel A4M in water. VS-6063-10% SDD in [sequence] L100-55 was formulated (0.10 correction factor) at a target concentration of 10 mg API/mL in 0.5% (w/v) Methocel A4M in water.
(§4) VS-6063-25% physical mixture with Soluplus/PVP-A and VS-6063-25% SDD in Soluplus/PVP-A were formulated (0.25 correction factor) at a target concentration of 10 mg API/mL in 0.5% (w/v) Methocel A4M in water. VS-6063-50% Physical mixture with Soluplus/PVP-A was formulated (0.50 correction factor) at target concentrations of 5 mg API/mL and 10 mg API/mL in 0.5% (w/v) Methocel A4M in water.
(§5) 4 groups of 1 male beagle dog per group received an oral gavage dose of VS-6063 in various formulations in a 4-session crossover design with a minimum 3-day washout period between dose sessions. In each session, VS-6063, VS-6063-25% SDD in Soluplus/PVP-A, VS-6063-25% physical mixture with Soluplus/PVP-A and VS-6063-10% SDD in [sequence] […] Food was returned at 4 hours post-dose.
(§6) Prior to dosing, the body weight of each animal was recorded. Doses (rounded to the nearest 0.01 mL) were calculated based on the pretreatment body weight (kg) and a dose volume of 1 mL/kg. Following the oral gavage dose, the gavage tube was flushed with 10 to 20 mL of water prior to removal of the tube. Dosing syringes were weighed immediately prior to and immediately after dosing each animal, and the quantity of formulation administered to each animal was determined from the difference in syringe weights.
(§7) 4 groups of 1 male beagle dog per group received an oral gavage dose of VS-6063 in various formulations in a 4-session crossover design with a minimum 3-day washout period between dose sessions.

[1] = Phase I study: safety and tolerability (adverse events) of VS-6063 tablets; format: in vivo, human (healthy male subjects)
Source text: In a Phase I, open-label, single center, single dose, partially randomized trial, the safety, bioavailability, and pharmacodynamics of prototype and reference formulations of VS-6063 were investigated in healthy male subjects. The study was comprised of four periods, each of which adhered to the same study design and involved 24 healthy male subjects between 40 and 65 years of age with a body mass index between 18.0 and 35.0 kg/m^2. Following a 28 day screening period, the subjects were admitted to the clinical unit the morning prior to dosing day (Day −1) and were dosed in the morning of Day 1. Subjects in Regimens A and B were administered VS-6063 following an overnight fast of about 10 hours, while subjects in Regimens C and D were administered VS-6063 within 30 minutes of starting a high fat breakfast, which was consumed within 25 minutes. Subjects remained on site until 36 hours after dosing. There was a minimum washout period of 7 days between the administration of each regimen. A follow-up phone call took place 7 to 10 days post final dose in periods 3 and 4 to ensure the ongoing well-being of the subjects.

[2] = male, beagle, dog, in vivo, po
Procedure: as §1, §2, §3, §4, §5, §6, §7

## CNC(=O)c1ccc(Nc2ncc(C(F)(F)F)c(NCc3nccnc3N(C)S(C)(=O)=O)n2)cc1 [VS-6063]
In vivo; 10 mg/kg
  Tmax: 2 h
In vivo; 10 mg/kg, t1/2
  half-life: ~3.9 h
In vivo
  Tmax: 2 to 4 h
[1]; Regimen A (200 mg reference, fasted)
  incidence of AEs: 3 subjects
[1]; Regimen B (100 mg prototype, fasted)
  incidence of AEs: 2 subjects
[1]; Regimen C (fed)
  incidence of AEs: 5 subjects
[1]; Regimen D (fed)
  incidence of AEs: 1 subject
[1]; single dose, fed and fasted, reference and prototype formulations
  tolerability: well tolerated
[1]; whole study
  serious or severe adverse events: no serious adverse events (AEs) or severe AEs
[1]; whole study, reported by 9 subjects
  total AEs reported: 12 AEs
[2]
  Mean AUCinf/Dose: 312 ng·h/mL per mg/kg
  Tmax: 2.50 h
[2]; 10 mg/kg
  Tmax: 4 h
